Measurements as given in the supplement of paper PMC8617591.

Columns and labels:
[1] = test system: Mycobacterium tuberculosis Erdman (autoluminescent); assay: FIC90 (Loewe) at 90% inhibition (log2); higher = more antagonistic
Method: (§1)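 DiaMOND equipotent two-drug combination dose responses against autoluminescent M. tuberculosis Erdman in 8 in vitro models. Read-out is OD600, or luminescence for the intracellular and dormancy models, normalised to untreated wells. Hill-fit Einf, AUC25 and GRinf are potency metrics; FIC50 and FIC90 are Loewe-additivity fractional inhibitory concentrations, given as log2 (negative = synergy). Replicates are averaged.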

[2] = test system: Mycobacterium tuberculosis Erdman (autoluminescent); assay: FIC50 (Loewe) at 50% inhibition (log2); higher = more antagonistic
Method: as §1

[3] = test system: Mycobacterium tuberculosis Erdman (autoluminescent); assay: Einf, fitted maximum growth inhibition of combination (fraction); higher = stronger maximal inhibition
Method: as §1

[4] = test system: Mycobacterium tuberculosis Erdman (autoluminescent); assay: GRinf, maximum normalised growth rate inhibition (unitless (-1 to 1)); higher = less effect (negative = killing)
Method: as §1

[5] = test system: Mycobacterium tuberculosis Erdman (autoluminescent); assay: AUC25, normalised area under dose response up to IC25 (fraction (0-1)); higher = more potent at low dose
Method: as §1

CC(=O)NC[C@H]1CN(c2ccc(N3CCOCC3)c(F)c2)C(=O)O1 [linezolid] + COc1c(N2C[C@@H]3CCCN[C@@H]3C2)c(F)cc2c(=O)c(C(=O)O)cn(C3CC3)c12 [moxifloxacin]
Conditions	AUC25, [5]	Einf, [3]	FIC50, [2]	FIC90, [1]	GRinf, [4]
in vitro model: acidic pH 5.7, time point: constant (~7 days, model-specific)	0.144	0.799	-0.0102	–	-0.581
in vitro model: acidic pH 5.7, time point: terminal (~4-5 doublings, model-specific)	0.102	0.963	0.872	0.52	-0.271
in vitro model: intracellular J774, time point: constant = terminal	–	0.909	–	0.463	-0.14

Conditions	AUC25, [5]	Einf, [3]	FIC50, [2]	FIC90, [1]	GRinf, [4]
in vitro model: butyrate, time point: constant (~7 days, model-specific)	0.0878	0.885	0.397	1.22	0.0908
in vitro model: butyrate, time point: terminal (~4-5 doublings, model-specific)	0.0618	0.939	0.323	0.392	0.0886
in vitro model: cholesterol 0.05 mM, time point: constant (~7 days, model-specific)	0.124	0.679	-0.444	–	-0.0664
in vitro model: cholesterol 0.05 mM, time point: terminal (~4-5 doublings, model-specific)	0.137	0.938	0.0528	-0.309	-0.215
in vitro model: cholesterol-high 0.2 mM, time point: constant (~7 days, model-specific)	0.123	0.95	-0.129	0.814	-0.546
in vitro model: cholesterol-high 0.2 mM, time point: terminal (~4-5 doublings, model-specific)	0.125	1	-0.211	0.433	-0.844
in vitro model: dormancy (butyrate + nitrate, low O2), time point: constant (~7 days, model-specific)	0.0537	0.914	0.869	0.521	0.139
in vitro model: dormancy (butyrate + nitrate, low O2), time point: terminal (~4-5 doublings, model-specific)	0.0589	0.964	0.671	0.922	0.061
in vitro model: standard 7H9 glycerol, time point: constant = terminal	0.0831	0.955	0.52	0.972	-0.197
in vitro model: valerate, time point: constant (~7 days, model-specific)	0.11	0.856	0.339	–	0.0191
in vitro model: valerate, time point: terminal (~4-5 doublings, model-specific)	0.0688	0.932	0.36	0.679	0.0477

CC(=O)NC[C@H]1CN(c2ccc(N3CCOCC3)c(F)c2)C(=O)O1 [linezolid] + NC(=O)c1cnccn1 [pyrazinamide]
Conditions	AUC25, [5]	Einf, [3]	FIC50, [2]	FIC90, [1]	GRinf, [4]
in vitro model: acidic pH 5.7, time point: constant (~7 days, model-specific)	0.0815	0.856	0.463	–	-0.176
in vitro model: acidic pH 5.7, time point: terminal (~4-5 doublings, model-specific)	0.0982	0.985	0.393	-1.67	-0.358
in vitro model: intracellular J774, time point: constant = terminal	–	0.948	–	0.0529	-0.235

Conditions	AUC25, [5]	Einf, [3]	FIC50, [2]	FIC90, [1]	GRinf, [4]
in vitro model: butyrate, time point: constant (~7 days, model-specific)	0.119	0.897	-0.211	1.73	0.0498
in vitro model: butyrate, time point: terminal (~4-5 doublings, model-specific)	0.0989	0.95	-0.152	0.565	0.0146
in vitro model: cholesterol 0.05 mM, time point: constant (~7 days, model-specific)	0.142	0.724	–	–	-0.126
in vitro model: cholesterol 0.05 mM, time point: terminal (~4-5 doublings, model-specific)	0.141	0.95	0.09	–	-0.256
in vitro model: cholesterol-high 0.2 mM, time point: constant (~7 days, model-specific)	0.114	0.957	0.0387	–	-0.407
in vitro model: cholesterol-high 0.2 mM, time point: terminal (~4-5 doublings, model-specific)	0.115	0.999	0.0483	0.383	-0.83
in vitro model: dormancy (butyrate + nitrate, low O2), time point: constant (~7 days, model-specific)	0.0601	0.878	0.507	0.733	0.236
in vitro model: dormancy (butyrate + nitrate, low O2), time point: terminal (~4-5 doublings, model-specific)	0.0422	0.823	0.0853	1.09	0.182
in vitro model: standard 7H9 glycerol, time point: constant = terminal	0.0807	0.939	0.336	–	-0.0617
in vitro model: valerate, time point: constant (~7 days, model-specific)	0.0877	0.798	-0.432	–	0.131
in vitro model: valerate, time point: terminal (~4-5 doublings, model-specific)	0.0556	0.892	-0.271	1.25	0.137

CC(=O)NC[C@H]1CN(c2ccc(N3CCOCC3)c(F)c2)C(=O)O1 [linezolid] + O=[N+]([O-])c1cn2c(n1)OC[C@@H](OCc1ccc(OC(F)(F)F)cc1)C2 [pretomanid]
Conditions	AUC25, [5]	Einf, [3]	FIC50, [2]	FIC90, [1]	GRinf, [4]
in vitro model: acidic pH 5.7, time point: constant (~7 days, model-specific)	0.116	0.89	0.583	–	-0.559
in vitro model: acidic pH 5.7, time point: terminal (~4-5 doublings, model-specific)	0.0893	0.984	0.324	0.246	-0.355
in vitro model: intracellular J774, time point: constant = terminal	–	0.993	–	1.06	-0.54

Conditions	AUC25, [5]	Einf, [3]	FIC50, [2]	FIC90, [1]	GRinf, [4]
in vitro model: butyrate, time point: constant (~7 days, model-specific)	0.0973	0.907	0.595	1.47	0.0334
in vitro model: butyrate, time point: terminal (~4-5 doublings, model-specific)	0.0643	0.947	0.4	0.493	0.0161
in vitro model: cholesterol 0.05 mM, time point: constant (~7 days, model-specific)	0.13	0.708	-0.367	–	-0.103
in vitro model: cholesterol 0.05 mM, time point: terminal (~4-5 doublings, model-specific)	0.142	0.942	-0.293	0.00527	-0.182
in vitro model: cholesterol-high 0.2 mM, time point: constant (~7 days, model-specific)	0.0977	0.869	-0.451	-0.477	-0.114
in vitro model: cholesterol-high 0.2 mM, time point: terminal (~4-5 doublings, model-specific)	0.111	0.992	-0.228	0.311	-0.548
in vitro model: dormancy (butyrate + nitrate, low O2), time point: constant (~7 days, model-specific)	0.0359	0.925	0.74	0.509	0.0858
in vitro model: dormancy (butyrate + nitrate, low O2), time point: terminal (~4-5 doublings, model-specific)	0.0385	0.991	0.255	0.232	-0.248
in vitro model: standard 7H9 glycerol, time point: constant = terminal	0.0819	0.971	0.34	0.309	-0.171
in vitro model: valerate, time point: constant (~7 days, model-specific)	0.102	0.802	1.02	–	0.0728
in vitro model: valerate, time point: terminal (~4-5 doublings, model-specific)	0.123	0.951	-0.689	0.943	0.0215

COc1c(N2C[C@@H]3CCCN[C@@H]3C2)c(F)cc2c(=O)c(C(=O)O)cn(C3CC3)c12 [moxifloxacin] + CO[C@H]1/C=C/O[C@@]2(C)Oc3c(C)c(O)c4c(O)c(c(/C=N/N5CCN(C6CCCC6)CC5)c(O)c4c3C2=O)NC(=O)/C(C)=C\C=C\[C@H](C)[C@H](O)[C@@H](C)[C@@H](O)[C@@H](C)[C@H](OC(C)=O)[C@@H]1C [rifapentine]
Conditions	AUC25, [5]	Einf, [3]	FIC50, [2]	FIC90, [1]	GRinf, [4]
in vitro model: acidic pH 5.7, time point: constant (~7 days, model-specific)	0.0469	0.776	0.389	–	0.0776
in vitro model: acidic pH 5.7, time point: terminal (~4-5 doublings, model-specific)	0.0544	0.962	0.463	0.271	-0.0233
in vitro model: intracellular J774, time point: constant = terminal	–	0.973	–	0.684	-0.226

Conditions	AUC25, [5]	Einf, [3]	FIC50, [2]	FIC90, [1]	GRinf, [4]
in vitro model: butyrate, time point: constant (~7 days, model-specific)	0.0933	0.893	0.555	0.73	0.0724
in vitro model: butyrate, time point: terminal (~4-5 doublings, model-specific)	0.0734	0.956	0.515	0.586	0.0272
in vitro model: cholesterol 0.05 mM, time point: constant (~7 days, model-specific)	0.131	0.594	0.777	–	-0.074
in vitro model: cholesterol 0.05 mM, time point: terminal (~4-5 doublings, model-specific)	0.0876	0.887	0.482	1.32	-0.0906
in vitro model: cholesterol-high 0.2 mM, time point: constant (~7 days, model-specific)	0.082	0.903	0.798	-0.159	-0.242
in vitro model: cholesterol-high 0.2 mM, time point: terminal (~4-5 doublings, model-specific)	0.0641	0.996	0.807	0.727	-0.866
in vitro model: dormancy (butyrate + nitrate, low O2), time point: constant (~7 days, model-specific)	0.0771	0.915	0.269	0.0994	0.17
in vitro model: dormancy (butyrate + nitrate, low O2), time point: terminal (~4-5 doublings, model-specific)	0.0532	0.985	0.72	0.719	-0.231
in vitro model: standard 7H9 glycerol, time point: constant = terminal	0.0584	0.893	0.509	0.225	0.0707
in vitro model: valerate, time point: constant (~7 days, model-specific)	0.0746	0.844	0.4	–	0.0459
in vitro model: valerate, time point: terminal (~4-5 doublings, model-specific)	0.0547	0.933	0.541	1.69	0.0582
